Assays:
[1] = biological target: T1, SERT (Rattus norvegicus, UniProt P31652); experiment: Pretreatment with monoamine reuptake inhibitors, specific binding of [18F]ACF in rat brain regions; type: in vivo, rats; parameters: Tracer uptake: Cortex / Tracer uptake: Remainder / Tracer uptake: Hypothalamus / Tracer uptake: Whole brain / Tracer uptake: Blood / Tracer uptake: Cerebellum / Tracer uptake: Striatum / Tracer uptake: Hippocampus: unit not given here; settings: for Ratio to Cerebellum: Cerebellum / Ratio to Cerebellum: Cortex / Ratio to Cerebellum: Hippocampus / Ratio to Cerebellum: Hypothalamus / Ratio to Cerebellum: Remainder / Ratio to Cerebellum: Striatum / Tracer uptake: Blood / Tracer uptake: Cerebellum / Tracer uptake: Cortex / Tracer uptake: Hippocampus / Tracer uptake: Hypothalamus / Tracer uptake: Remainder / Tracer uptake: Striatum / Tracer uptake: Whole brain: 1 h after tracer
T1 construct: from tissue; host or cells: rat brain in vivo (hypothalamus, striatum, hippocampus, cerebellum)
T1 sequence (P31652 whole entry): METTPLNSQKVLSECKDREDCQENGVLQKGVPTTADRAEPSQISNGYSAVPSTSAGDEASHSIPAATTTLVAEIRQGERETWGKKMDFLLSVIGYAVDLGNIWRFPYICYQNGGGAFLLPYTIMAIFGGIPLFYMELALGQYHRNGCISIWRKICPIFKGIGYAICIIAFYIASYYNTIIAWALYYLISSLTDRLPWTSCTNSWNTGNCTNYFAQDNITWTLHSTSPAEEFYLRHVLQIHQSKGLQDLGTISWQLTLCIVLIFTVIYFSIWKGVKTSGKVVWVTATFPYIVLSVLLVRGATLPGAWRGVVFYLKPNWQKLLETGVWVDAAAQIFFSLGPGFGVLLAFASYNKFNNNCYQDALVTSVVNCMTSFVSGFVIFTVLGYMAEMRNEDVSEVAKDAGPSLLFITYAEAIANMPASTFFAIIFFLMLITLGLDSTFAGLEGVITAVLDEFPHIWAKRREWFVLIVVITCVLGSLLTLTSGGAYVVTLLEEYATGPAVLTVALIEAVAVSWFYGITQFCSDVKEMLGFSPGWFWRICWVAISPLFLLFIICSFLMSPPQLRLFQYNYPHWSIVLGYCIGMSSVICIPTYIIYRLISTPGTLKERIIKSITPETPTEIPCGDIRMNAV

[2] = In vivo metabolism of [18F]ACF in rats; settings: three rats, one hour after iv injection
Experimental: In vivo metabolism of [^18F]ACF ([^18F]25), in three rats was evaluated at one hour after iv injection.

[3] = Organ distribution and brain regional uptake of [18F]ACF in rats
[4] = rats, Control (saline-pretreated)
[5] = rats, pretreated (+)McN5652 2 mg/kg iv 5 min prior
[6] = rats, pretreated Methylphenidate 2 mg/kg iv 5 min prior
[7] = rats, pretreated Nisoxetine 2 mg/kg iv 5 min prior

CN(C)Cc1ccccc1Sc1cc([18F])c(Cl)cc1N [[^18F]ACF]
Specific retention in brain regions after pretreatment ([1]; rats pretreated with methylphenidate): No significant differences | Specific retention in brain regions after pretreatment ([1]; rats pretreated with nisoxetine): No significant differences | Specific retention in hypothalamus, striatum and hippocampus after pretreatment ([1]; rats, 60 min, (+)McN5652 2 mg/Kg 5 min prior to tracer injection): significant decrease | Ratio to Cerebellum: Cerebellum [1, 4]: 1.00 ± 0.00 | Ratio to Cerebellum: Cortex [1, 4]: 1.86 ± 0.05 | Ratio to Cerebellum: Hippocampus [1, 4]: 2.52 ± 0.13 | Ratio to Cerebellum: Hypothalamus [1, 4]: 2.96 ± 0.03 | Ratio to Cerebellum: Remainder [1, 4]: 2.26 ± 0.03 | Ratio to Cerebellum: Striatum [1, 4]: 2.63 ± 0.23 | Tracer uptake: Blood [1, 4]: 0.26 ± 0.03 | Tracer uptake: Cerebellum [1, 4]: 0.21 ± 0.02 | Tracer uptake: Cortex [1, 4]: 0.39 ± 0.03 | Tracer uptake: Hippocampus [1, 4]: 0.53 ± 0.03 | Tracer uptake: Hypothalamus [1, 4]: 0.63 ± 0.05 | Tracer uptake: Remainder [1, 4]: 0.48 ± 0.04 | Tracer uptake: Striatum [1, 4]: 0.56 ± 0.09 | Tracer uptake: Whole brain [1, 4]: 0.81 ± 0.09 | Ratio to Cerebellum: Cerebellum [1, 5]: 1.00 ± 0.00 | Ratio to Cerebellum: Cortex [1, 5]: 1.43 ± 0.27 | Ratio to Cerebellum: Hippocampus [1, 5]: 1.93 ± 0.21 | Ratio to Cerebellum: Hypothalamus [1, 5]: 1.36 ± 0.15 | Ratio to Cerebellum: Remainder [1, 5]: 1.37 ± 0.16 | Ratio to Cerebellum: Striatum [1, 5]: 1.48 ± 0.32 | Tracer uptake: Blood [1, 5]: 0.26 ± 0.03 | Tracer uptake: Cerebellum [1, 5]: 0.17 ± 0.03 | Tracer uptake: Cortex [1, 5]: 0.24 ± 0.02 | Tracer uptake: Hippocampus [1, 5]: 0.34 ± 0.06 | Tracer uptake: Hypothalamus [1, 5]: 0.24 ± 0.03 | Tracer uptake: Remainder [1, 5]: 0.23 ± 0.01 | Tracer uptake: Striatum [1, 5]: 0.25 ± 0.03 | Tracer uptake: Whole brain [1, 5]: 0.42 ± 0.02 | Ratio to Cerebellum: Cerebellum [1, 6]: 1.00 ± 0.00 | Ratio to Cerebellum: Cortex [1, 6]: 2.02 ± 0.21 | Ratio to Cerebellum: Hippocampus [1, 6]: 2.50 ± 0.15 | Ratio to Cerebellum: Hypothalamus [1, 6]: 3.05 ± 0.14 | Ratio to Cerebellum: Remainder [1, 6]: 2.23 ± 0.05 | Ratio to Cerebellum: Striatum [1, 6]: 2.75 ± 0.09 | Tracer uptake: Blood [1, 6]: 0.28 ± 0.02 | Tracer uptake: Cerebellum [1, 6]: 0.17 ± 0.02 | Tracer uptake: Cortex [1, 6]: 0.35 ± 0.03 | Tracer uptake: Hippocampus [1, 6]: 0.43 ± 0.03 | Tracer uptake: Hypothalamus [1, 6]: 0.52 ± 0.07 | Tracer uptake: Remainder [1, 6]: 0.38 ± 0.05 | Tracer uptake: Striatum [1, 6]: 0.47 ± 0.06 | Tracer uptake: Whole brain [1, 6]: 0.67 ± 0.04 | Ratio to Cerebellum: Cerebellum [1, 7]: 1.00 ± 0.00 | Ratio to Cerebellum: Cortex [1, 7]: 1.94 ± 0.16 | Ratio to Cerebellum: Hippocampus [1, 7]: 2.44 ± 0.11 | Ratio to Cerebellum: Hypothalamus [1, 7]: 2.89 ± 0.11 | Ratio to Cerebellum: Remainder [1, 7]: 2.17 ± 0.04 | Ratio to Cerebellum: Striatum [1, 7]: 2.50 ± 0.12 | Tracer uptake: Blood [1, 7]: 0.26 ± 0.01 | Tracer uptake: Cerebellum [1, 7]: 0.19 ± 0.01 | Tracer uptake: Cortex [1, 7]: 0.37 ± 0.04 | Tracer uptake: Hippocampus [1, 7]: 0.46 ± 0.02 | Tracer uptake: Hypothalamus [1, 7]: 0.55 ± 0.02 | Tracer uptake: Remainder [1, 7]: 0.41 ± 0.01 | Tracer uptake: Striatum [1, 7]: 0.47 ± 0.03 | Tracer uptake: Whole brain [1, 7]: 0.74 ± 0.04 | Activity extracted from the brain that was original compound (HPLC) [2]: 95.5±0.40% | Percentage of organic-extractable material, kidney [2]: 20.25±0.60% | Percentage of organic-extractable material, liver [2]: 20.03±6.60% | Percentage of organic-extractable material, plasma [2]: 6.76±1.00% | Organ distribution: Blood ([3]; 2 min after iv injection): 6.56 ± 0.64 % dose/organ | Organ distribution: Bone ([3]; 2 min after iv injection): 0.01 ± 0.00 % dose/organ | Organ distribution: Brain ([3]; 2 min after iv injection): 3.27±0.79 % dose/organ | Organ distribution: Heart ([3]; 2 min after iv injection): 1.69 ± 0.24 % dose/organ | Organ distribution: Kidney ([3]; 2 min after iv injection): 6.97 ± 0.73 % dose/organ | Organ distribution: Liver ([3]; 2 min after iv injection): 9.41 ± 1.82 % dose/organ | Organ distribution: Lung ([3]; 2 min after iv injection): 14.89 ± 2.28 % dose/organ | Organ distribution: Muscle ([3]; 2 min after iv injection): 14.34 ± 9.76 % dose/organ | Organ distribution: Skin ([3]; 2 min after iv injection): 4.76 ± 0.89 % dose/organ | Organ distribution: Spleen ([3]; 2 min after iv injection): 0.64 ± 0.20 % dose/organ | Ratio to Cerebellum: Cerebellum ([3]; 2 min after iv injection): 1.00 ± 0.00 | Ratio to Cerebellum: Cortex ([3]; 2 min after iv injection): 1.84 ± 0.43 | Ratio to Cerebellum: Hippocampus ([3]; 2 min after iv injection): 1.24 ± 0.15 | Ratio to Cerebellum: Hypothalamus ([3]; 2 min after iv injection): 1.37 ± 0.19 | Ratio to Cerebellum: Remainder ([3]; 2 min after iv injection): 1.32 ± 0.21 | Ratio to Cerebellum: Striatum ([3]; 2 min after iv injection): 1.41 ± 0.31 | Regional brain distribution: Cerebellum ([3]; 2 min after iv injection): 1.33 ± 0.51 % dose/g | Regional brain distribution: Cortex ([3]; 2 min after iv injection): 2.31 ± 0.46 % dose/g | Regional brain distribution: Hippocampus ([3]; 2 min after iv injection): 1.60 ± 0.46 % dose/g | Regional brain distribution: Hypothalamus ([3]; 2 min after iv injection): 1.76 ± 0.48 % dose/g | Regional brain distribution: Remainder ([3]; 2 min after iv injection): 1.69 ± 0.43 % dose/g | Regional brain distribution: Striatum ([3]; 2 min after iv injection): 1.78 ± 0.36 % dose/g | Organ distribution: Blood ([3]; 30 min after iv injection): 4.52 ± 0.22 % dose/organ | Organ distribution: Bone ([3]; 30 min after iv injection): 0.04 ± 0.03 % dose/organ

Reference: US7041851B2, “Fluorinated phenyl thiophenyl derivatives and their use for imaging serotonin transporters” (The Trustees of the University of Pennsylvania, priority 2002, dated 2006)
